For 81 compounds, Ki results are on record in patent publication US7998987B2, “Inhibitors of c-Met and uses thereof” (Vertex Pharmaceuticals Incorporated, priority 2005, dated 2011).

Molecules are shown by their SMILES.

Sequence of c-Met (P08581 25-1390): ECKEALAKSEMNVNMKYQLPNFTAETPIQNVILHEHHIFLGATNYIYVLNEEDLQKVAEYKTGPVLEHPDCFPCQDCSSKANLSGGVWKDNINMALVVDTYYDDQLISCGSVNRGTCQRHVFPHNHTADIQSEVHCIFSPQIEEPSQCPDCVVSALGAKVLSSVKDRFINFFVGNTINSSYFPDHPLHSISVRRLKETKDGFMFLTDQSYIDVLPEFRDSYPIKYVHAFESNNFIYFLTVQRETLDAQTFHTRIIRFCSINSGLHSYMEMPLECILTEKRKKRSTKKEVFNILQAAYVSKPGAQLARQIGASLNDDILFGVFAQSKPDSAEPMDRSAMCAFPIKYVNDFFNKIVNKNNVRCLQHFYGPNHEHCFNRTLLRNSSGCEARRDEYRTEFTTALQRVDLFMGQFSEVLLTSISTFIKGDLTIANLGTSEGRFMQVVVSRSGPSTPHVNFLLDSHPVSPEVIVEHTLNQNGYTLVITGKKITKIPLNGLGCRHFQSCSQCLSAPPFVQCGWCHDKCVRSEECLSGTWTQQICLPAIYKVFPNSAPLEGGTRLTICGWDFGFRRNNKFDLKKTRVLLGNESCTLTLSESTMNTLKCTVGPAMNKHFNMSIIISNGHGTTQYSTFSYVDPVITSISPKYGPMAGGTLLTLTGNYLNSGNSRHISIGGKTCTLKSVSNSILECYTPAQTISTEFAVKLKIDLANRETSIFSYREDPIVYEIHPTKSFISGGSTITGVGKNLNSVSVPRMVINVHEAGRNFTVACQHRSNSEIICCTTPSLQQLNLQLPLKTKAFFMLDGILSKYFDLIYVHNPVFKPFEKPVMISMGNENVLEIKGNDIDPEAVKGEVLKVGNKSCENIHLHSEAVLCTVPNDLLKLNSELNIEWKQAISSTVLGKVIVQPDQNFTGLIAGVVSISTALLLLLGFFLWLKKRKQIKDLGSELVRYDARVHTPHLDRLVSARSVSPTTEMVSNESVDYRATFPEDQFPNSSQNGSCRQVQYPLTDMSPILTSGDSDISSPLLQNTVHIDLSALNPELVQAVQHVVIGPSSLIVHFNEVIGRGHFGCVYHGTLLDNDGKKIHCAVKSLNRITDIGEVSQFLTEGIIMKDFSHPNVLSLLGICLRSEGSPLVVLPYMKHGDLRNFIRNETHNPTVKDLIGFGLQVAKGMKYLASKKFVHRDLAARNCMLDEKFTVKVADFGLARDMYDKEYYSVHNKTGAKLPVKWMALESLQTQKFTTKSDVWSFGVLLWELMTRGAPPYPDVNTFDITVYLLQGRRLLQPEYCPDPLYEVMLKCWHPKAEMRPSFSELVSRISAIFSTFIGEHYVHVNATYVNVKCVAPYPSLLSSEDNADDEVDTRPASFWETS

The first test has as its target c-Met (Homo sapiens, UniProt P08581). Kind of test: Ki determination for the inhibition of c-Met kinase activity (standard coupled enzyme system). Format: biochemical. The conditions noted are these: coupled enzyme system, 200 μM ATP, 80 nM c-Met, 30° C.; read-out: c-Met Ki. The method in brief: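 Continuous coupled-enzyme (PK/LDH, NADH depletion) assay with 80 nM c-Met, 200 μM ATP and 10 μM polyGluTyr in 100 mM HEPES pH 7.5, 10 mM MgCl2, 1.5% DMSO at 30 °C.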
Usually Ki stands for the dissociation constant of the complex between target and ligand, obtained from inhibition or displacement. Turning to `O=C(N[C@@H](Cc1ccccc1)C1=Nn2c(Cc3ccc(O)cc3)nnc2SC1)OCc1ccccc1` [Compound 537], the Ki was above 2 µM.

Take `Oc1ccc(Cc2nnc3ccc(NC4CC4)nn23)cc1` [Compound 329]: the Ki was in the range of 0.1 to 2 µM.

Turning to `COc1ccc(NCc2nnc3ccc(Nc4cccc(Cl)c4)nn23)cc1OC` [Compound 337], the Ki was above 2 µM.

With `Nc1cc(F)ccc1OCc1nnc2ccc(Nc3cccc(Cl)c3)nn12` [Compound 432], the Ki is above 2 µM.

Take `CCn1nccc1Nc1ccc2nnc([C@@H](C)c3ccc(O)cc3)n2n1` [Compound 497]: the Ki lay in the range of 0.1 to 2 µM.

Consider `Fc1ccc(Cc2nnc3ccc(Nc4cccc(Cl)c4)nn23)cc1` [Compound 402], for which the Ki was below 0.1 µM.

As for `C[C@@H](c1ccc(O)cc1)c1nnc2ccc(Nc3ccnn3C)nn12` [Compound 505], the Ki was 0.1 to 2 µM.

Consider `CCc1cccc(Nc2ccc3nnc(Cc4ccc(OC)cc4)n3n2)c1` [Compound 291], for which the Ki fell in the range of 0.1 to 2 µM.

On to `NC(c1ccc(F)cc1)c1nnc2ccc(Nc3cccc(Cl)c3)nn12` (stereo not drawn) [Compound 492], for which the Ki was in the range of 0.1 to 2 µM.

Turning to `Oc1ccc(Cc2nnc3n2N=C(c2ccc4c(c2)OCO4)CS3)cc1` [Compound 540], the Ki is below 0.1 µM.

As for `Oc1ccc(Cc2nnc3ccc(Nc4cc(Cl)cc(Cl)c4)nn23)cc1` [Compound 294], the inhibition constant (Ki) is below 0.1 µM.

`Oc1ccc(Cc2nnc3n2N=C(c2c[nH]c4ncccc24)CS3)cc1` [Compound 524]: the Ki lay in the range of 0.1 to 2 µM.

Turning to `CCN(CC)CC(C)Nc1ccc2nnc(Cc3ccc(O)cc3)n2n1` (stereo not drawn) [Compound 311], the Ki was above 2 µM.

Take `Oc1ccc(Cc2nnc3n2N=C(c2cccs2)CS3)cc1` [Compound 543]: the Ki was below 0.1 µM.

Take `N#CCc1ccc(OCc2nnc3ccc(Nc4cccc(Cl)c4)nn23)cc1` [Compound 382]: the Ki was above 2 µM.

As for `O=c1ccc(Cc2nnc3ccc(Nc4cccc(Cl)c4)nn23)c[nH]1` [Compound 502], the Ki was below 0.1 µM.

For the compound `Oc1ccc(NCc2nnc3ccc(Nc4cccc(Cl)c4)nn23)cc1` [Compound 412], the Ki was 0.1 to 2 µM.

`Clc1cccc(Nc2ccc3nnc(COc4cccnc4)n3n2)c1` [Compound 371]: the Ki fell in the range of 0.1 to 2 µM.

As for `C[C@@H](c1ccc(O)cc1)c1nnc2ccc(Nc3ccncn3)nn12` [Compound 498], the Ki lay in the range of 0.1 to 2 µM.

As to `Oc1ccc(Cc2nnc3ccc(Nc4cc(F)cc(F)c4)nn23)cc1F` [Compound 298], the Ki is below 0.1 µM.

For `Oc1cccc(CCc2nnc3ccc(Nc4cccc(Cl)c4)nn23)c1` [Compound 441], the Ki was above 2 µM.

With `Oc1ccc(Cc2nnc3n2N=C(c2ccncc2)CS3)cc1` [Compound 538], the Ki was in the range of 0.1 to 2 µM.

Consider `Oc1ccc(Cc2nnc3n2N=C(c2ccsc2)CS3)cc1` [Compound 541], for which the Ki was below 0.1 µM.

Regarding `COc1ccc(NCc2nnc3ccc(Nc4cccc(Cl)c4)nn23)cc1O` [Compound 335], the Ki was above 2 µM.

With `CCOC(=O)C1=Nn2c(Cc3ccc(O)cc3)nnc2SC1` [Compound 534], the Ki lay in the range of 0.1 to 2 µM.

On to `CCOC(=O)N1CCC(Nc2ccc3nnc(Cc4ccc(O)cc4)n3n2)CC1` [Compound 306], for which the Ki was in the range of 0.1 to 2 µM.

Take `Clc1cccc(Nc2ccc3nnc(CNc4cccc(Oc5ccccc5)c4)n3n2)c1` [Compound 334]: the Ki is above 2 µM.

For `NC(=O)c1ccc(OCc2nnc3ccc(Nc4cccc(Cl)c4)nn23)cc1` [Compound 470], the Ki is 0.1 to 2 µM.

On to `Cc1cc(C)cc(Nc2ccc3nnc(Cc4ccc(O)c(Cl)c4)n3n2)c1` [Compound 296], for which the Ki was below 0.1 µM.

For the compound `Clc1cccc(Nc2ccc3nnc(CNc4ccc5c(c4)OCCO5)n3n2)c1` [Compound 349], the Ki was above 2 µM.

For `COc1cc(OC)c(NCc2nnc3ccc(Nc4cccc(Cl)c4)nn23)cc1Cl` [Compound 345], the Ki is above 2 µM.

On to `Clc1cccc(Nc2ccc3nnc(Cc4noc5ccccc45)n3n2)c1` [Compound 438], for which the Ki is above 2 µM.

Regarding `Nc1ncccc1OCc1nnc2ccc(Nc3cccc(Cl)c3)nn12` [Compound 413], the Ki was below 0.1 µM.

Take `C[C@@H](c1ccc(O)cc1)c1nnc2ccc(Nc3nc4ccccc4s3)nn12` [Compound 499]: the Ki fell in the range of 0.1 to 2 µM.

For `Clc1cccc(Nc2ccc3nnc(Cn4cnc5ccccc54)n3n2)c1` [Compound 485], the Ki is above 2 µM.

`C[C@@H](c1ccc(O)cc1)c1nnc2ccc(NC3CCCCC3)nn12` [Compound 419]: the Ki was below 0.1 µM.

As for `C[C@@H](c1ccc(O)cc1)c1nnc2ccc(Sc3nc[nH]n3)nn12` [Compound 508], the Ki is 0.1 to 2 µM.

Consider `CCOc1cccc(OCc2nnc3ccc(Nc4cccc(Cl)c4)nn23)c1` [Compound 385], for which the Ki was above 2 µM.

Staying with this test, now noted: coupled enzyme system, 200 μM ATP, 10 μM polyGluTyr, 80 nM c-Met, 30° C.; read-out: c-Met Ki.
On to `O=C(Nc1ccc(F)cc1)Nc1nn2c(Cc3ccc(O)cc3)nnc2s1` [Compound 114], for which the Ki was above 2 µM.

Regarding `Oc1ccc(Cc2nnc3sc(NC4CCCCC4)nn23)cc1` [Compound 86], the Ki fell in the range of 0.1 to 2 µM.

`Fc1cc(F)cc(Nc2nn3c(Cc4ccc5c(c4)OCO5)nnc3s2)c1` [Compound 127]: the Ki is below 0.1 µM.

As to `C[C@@H](c1ccc(O)c(C(C)(C)C)c1)c1nnc2sc(Nc3cccc(F)c3)nn12` [Compound 172], the Ki lay within 0.1 to 2 µM.

On to `Oc1ccc(Cc2nnc3ccc(Nc4cc(F)cc(F)c4)nn23)cc1Cl` [Compound 251], for which the Ki was below 0.1 µM.

Regarding `OCCCCNc1ccc2nnc(Cc3ccc(O)cc3)n2n1` [Compound 198], the Ki lay in the range of 0.1 to 2 µM.

Turning to `Nc1nn2c(Cc3ccc(O)cc3)nnc2s1` [Compound 7], the Ki lay within 0.1 to 2 µM.

For the compound `COc1ccc(Cc2nnc3sc(-c4ccccn4)nn23)cc1` [Compound 20], the Ki is 0.1 to 2 µM.

As for `CNc1nn2c(Cc3ccc(O)cc3)nnc2s1` [Compound 14], the Ki fell in the range of 0.1 to 2 µM.

On to `CN(c1ccc2nnc(Cc3ccc(O)cc3)n2n1)C1CCCCC1` [Compound 196], for which the Ki is 0.1 to 2 µM.

On to `CC(Oc1ccc2ncccc2c1)c1nnc2sc(Nc3cccc(Cl)c3)nn12` (stereo not drawn) [Compound 163], for which the inhibition constant Ki was above 2 µM.

With `Oc1ccc(Cc2nnc3ccc(NC4CCCC4)nn23)cc1` [Compound 269], the Ki was in the range of 0.1 to 2 µM.

Regarding `Oc1ccc(Cc2nnc3ccc(N4CCC(c5ccccc5)C4)nn23)cc1` (stereo not drawn) [Compound 201], the Ki was above 2 µM.

For the compound `CC(C)(C)c1cccc(Nc2ccc3nnc(Cc4ccc(O)cc4)n3n2)c1` [Compound 182], the Ki was below 0.1 µM.

As for `COc1cccc(Nc2nn3c(Cc4ccc5c(c4)OCO5)nnc3s2)c1` [Compound 34], the Ki is 0.1 to 2 µM.

Take `CC(c1ccc(O)cc1)c1nnc2sc(Nc3cccc(F)c3)nn12` (stereo not drawn) [Compound 100]: the Ki is below 0.1 µM.

With `Cc1cccc(Nc2ccc3nnc(Cc4ccc(O)c(Cl)c4)n3n2)c1` [Compound 228], the Ki is 0.1 to 2 µM.

Consider `Cc1cccc(Nc2ccc3nnc(Cc4ccc5c(c4)OCO5)n3n2)c1` [Compound 230], for which the Ki fell in the range of 0.1 to 2 µM.

For `CC(C)C[C@@H](CO)Nc1ccc2nnc(Cc3ccc(O)cc3)n2n1` [Compound 188], the Ki was in the range of 0.1 to 2 µM.

Regarding `CCC(C)Nc1ccc2nnc(Cc3ccc(O)cc3)n2n1` (stereo not drawn) [Compound 278], the Ki was 0.1 to 2 µM.

For the compound `NC(=O)[C@H]1CCC[C@H]1Nc1ccc2nnc(Cc3ccc(O)cc3)n2n1` [Compound 203], the Ki is above 2 µM.

Turning to `CN(C)c1nn2c(Cc3ccc(O)cc3)nnc2s1` [Compound 41], the Ki is above 2 µM.

Take `COc1cc(Cc2nnc3sc(Nc4ccccc4)nn23)ccc1O` [Compound 26]: the Ki was 0.1 to 2 µM.

`Oc1ccc(Cc2nnc3ccc(NC4CC5CCC4C5)nn23)cc1` (stereo not drawn) [Compound 275]: the Ki was below 0.1 µM.

Turning to `Oc1ccc(Cc2nnc3sc(Nc4cccc(F)c4)nn23)cc1F` [Compound 108], the Ki is below 0.1 µM.

`COc1ccc(Cc2nnc3sc(C4CCCCN4)nn23)cc1` (stereo not drawn) [Compound 24]: the Ki was above 2 µM.

`Oc1ccc(Cc2nnc3sc(Nc4cccc(F)c4Cl)nn23)cc1Cl` [Compound 103]: the Ki lay in the range of 0.1 to 2 µM.

Regarding `Oc1ccc(CCc2nnc3sc(Nc4cc(F)cc(F)c4)nn23)cc1` [Compound 111], the Ki lay in the range of 0.1 to 2 µM.

As to `COc1cccc(Nc2ccc3nnc(Cc4ccncc4)n3n2)c1` [Compound 244], the Ki was above 2 µM.

Turning to `Fc1cccc(Nc2nn3c(Cn4ccc5ncccc54)nnc3s2)c1` [Compound 134], the Ki was 0.1 to 2 µM.

Regarding `COc1cccc(Nc2nn3c(C(C)c4ccc(O)cc4)nnc3s2)c1` (stereo not drawn) [Compound 37], the Ki is below 0.1 µM.

Regarding `COC(=O)c1ccccc1Nc1nn2c(Cc3ccc(O)cc3)nnc2s1` [Compound 69], the Ki was above 2 µM.

Regarding `Oc1ccc(Cc2nnc3sc(Nc4cc(F)cc(F)c4)nn23)cc1Cl` [Compound 104], the Ki is below 0.1 µM.

As for `Oc1cccc(CCc2nnc3sc(Nc4cccc(Cl)c4)nn23)c1` [Compound 92], the Ki is above 2 µM.

For the compound `Clc1cccc(Nc2ccc3nnc(Cc4ccc5c(c4)OCO5)n3n2)c1` [Compound 239], the Ki was below 0.1 µM.

For `C[C@@H](c1ccc(O)cc1)c1nnc2sc(Nc3cccc(Cl)c3)nn12` [Compound 116], the Ki is below 0.1 µM.

On to `CNC(=O)c1nn2c(C(C)c3ccc(O)cc3)nnc2s1` (stereo not drawn) [Compound 87], for which the Ki was above 2 µM.

For `Oc1ccc(Cc2nnc3ccc(Nc4cc(Cl)cc(Cl)c4)nn23)cc1F` [Compound 245], the Ki was below 0.1 µM.

For `OCc1cccc(Nc2ccc3nnc(Cc4ccc(O)c(F)c4)n3n2)c1` [Compound 260], the Ki is 0.1 to 2 µM.

Regarding `Oc1ccc(CCc2nnc3sc(Nc4cccc(Cl)c4F)nn23)cc1` [Compound 102], the Ki lay within 0.1 to 2 µM.

For the compound `Oc1cccc2c1ccn2Cc1nnc2sc(Nc3cccc(C(F)(F)F)c3)nn12` [Compound 160], the Ki was below 0.1 µM.

In the case of `Cc1cc(F)ccc1Nc1nn2c(Cc3ccc(O)cc3)nnc2s1` [Compound 76], the Ki is 0.1 to 2 µM.

`Clc1ccc(Cc2nnc3sc(Nc4cccc(Cl)c4)nn23)cc1` [Compound 91]: the Ki is above 2 µM.
